Assays:
Assay type in all cases: functional
[1] = test system: T47D; test: Cytotoxicity against human T47D cells assessed as cellular growth at 10 uM by SRB assay
[2] = test system: MCF7; test: Cytotoxicity against human MCF7 cells assessed as cellular growth at 10 uM by SRB assay
[3] = test system: UO-31; test: Cytotoxicity against human UO31 cells assessed as cellular growth at 10 uM by SRB assay
[4] = test system: TK-10; test: Cytotoxicity against human TK10 cells assessed as cellular growth at 10 uM by SRB assay
[5] = test system: ACHN; test: Cytotoxicity against human ACHN cells assessed as cellular growth at 10 uM by SRB assay
[6] = test system: 786-0; test: Cytotoxicity against human 786-0 cells assessed as cellular growth at 10 uM by SRB assay
[7] = Cytotoxicity against human NCI-ADR-RES cells assessed as cellular growth at 10 uM by SRB assay
[8] = test system: OVCAR-3; test: Cytotoxicity against human OVCAR3 cells assessed as cellular growth at 10 uM by SRB assay
[9] = test system: SK-MEL-28; test: Cytotoxicity against human SK-MEL-28 cells assessed as cellular growth at 10 uM by SRB assay
[10] = test system: LOX IMVI; test: Cytotoxicity against human LOXIMVI cells assessed as cellular growth at 10 uM by SRB assay
[11] = test system: SNB-75; test: Cytotoxicity against human SNB75 cells assessed as cellular growth at 10 uM by SRB assay
[12] = test system: SNB-19; test: Cytotoxicity against human SNB19 cells assessed as cellular growth at 10 uM by SRB assay
[13] = test system: SF-539; test: Cytotoxicity against human SF539 cells assessed as cellular growth at 10 uM by SRB assay
[14] = test system: SF-295; test: Cytotoxicity against human SF295 cells assessed as cellular growth at 10 uM by SRB assay
[15] = test system: HT-29; test: Cytotoxicity against human HT-29 cells assessed as cellular growth at 10 uM by SRB assay
[16] = test system: NCI-H322M; test: Cytotoxicity against human NCI-H322M cells assessed as cellular growth at 10 uM by SRB assay
[17] = test system: NCI-H226; test: Cytotoxicity against human NCI-H226 cells assessed as cellular growth at 10 uM by SRB assay
[18] = test system: EKVX; test: Cytotoxicity against human EKVX cells assessed as cellular growth at 10 uM by SRB assay
[19] = test system: HL-60(TB); test: Cytotoxicity against human HL-60(TB) cells assessed as cellular growth at 10 uM by SRB assay

N#Cc1ccc(-n2nnc3ccccc32)cc1C#N
Activity [1]: 86.31% | Activity [2]: 82.05% | Activity [3]: 88.55% | Activity [4]: 133.56% | Activity [5]: 102.68% | Activity [6]: 99.49% | Activity [7]: 100.66% | Activity [8]: 101.15% | Activity [9]: 104.11% | Activity [10]: 99.41% | Activity [11]: 120.55% | Activity [12]: 112.27% | Activity [13]: 101.14% | Activity [14]: 91.5% | Activity [15]: 108.03% | Activity [16]: 111.4% | Activity [17]: 96.73% | Activity [18]: 79.18% | Activity [19]: 107.7%

Cc1ccc(CNC(=O)c2[nH]c3ccccc3c2Cl)cc1
Activity [1]: 84.33% | Activity [2]: 98.84% | Activity [3]: 110.2% | Activity [4]: 124.52% | Activity [5]: 112.34% | Activity [6]: 102.13% | Activity [7]: 92.34% | Activity [8]: 95.55% | Activity [9]: 113.18% | Activity [10]: 97.73% | Activity [11]: 123.78% | Activity [12]: 105.35% | Activity [13]: 110.44% | Activity [14]: 94.21% | Activity [15]: 100.16% | Activity [16]: 111.04% | Activity [17]: 96.65% | Activity [18]: 91.13% | Activity [19]: 113.42%

Oc1ccccc1-c1nc(-c2cccs2)no1
Activity [1]: 76.43% | Activity [2]: 56.48% | Activity [3]: 71.94% | Activity [4]: 89.67% | Activity [5]: 98.95% | Activity [6]: 101.07% | Activity [7]: 106.13% | Activity [8]: 108.33% | Activity [9]: 115.6% | Activity [10]: 100.28% | Activity [11]: 90.2% | Activity [12]: 102.55% | Activity [13]: 104.64% | Activity [14]: 109.56% | Activity [15]: 111.27% | Activity [16]: 116.66% | Activity [17]: 93.28% | Activity [18]: 89.29%

Clc1ccc(-c2nc(-c3cccs3)no2)c(Cl)c1
Activity [1]: 51.7% | Activity [2]: 29.22% | Activity [3]: 70.88% | Activity [4]: 71.42% | Activity [5]: 99.79% | Activity [6]: 97.42% | Activity [7]: 102.9% | Activity [8]: 99.18% | Activity [9]: 103.74% | Activity [10]: 103.49% | Activity [11]: 63.47% | Activity [12]: 104.48% | Activity [13]: 107.53% | Activity [14]: 107.44% | Activity [16]: 120.06% | Activity [17]: 88.68% | Activity [18]: 72.63%

O=C(NCCc1ccc(Cl)cc1)c1[nH]c2ccccc2c1Cl
Activity [1]: 81.02% | Activity [2]: 78.35% | Activity [3]: 73.65% | Activity [4]: 160.82% | Activity [5]: 99.57% | Activity [6]: 106.07% | Activity [7]: 100.24% | Activity [8]: 100.99% | Activity [9]: 109.77% | Activity [10]: 96.1% | Activity [11]: 89.76% | Activity [12]: 98.39% | Activity [13]: 101.07% | Activity [14]: 98.05% | Activity [15]: 100.35% | Activity [16]: 106.64% | Activity [17]: 89.37% | Activity [18]: 91.27% | Activity [19]: 94.84%

O=C1N=C(c2ccccc2)S/C1=C\c1ccc2c(c1)OCO2
Activity [1]: 94.58% | Activity [2]: 101.6% | Activity [3]: 86.92% | Activity [4]: 110.48% | Activity [5]: 99.6% | Activity [6]: 100.46% | Activity [7]: 107.06% | Activity [8]: 95.8% | Activity [9]: 106.02% | Activity [10]: 102.92% | Activity [11]: 95.66% | Activity [12]: 98.6% | Activity [13]: 95.81% | Activity [14]: 97.51% | Activity [15]: 101.51% | Activity [16]: 108.21% | Activity [17]: 95.12% | Activity [18]: 98.04% | Activity [19]: 111.12%

Cc1c(OCC(=O)c2ccccc2)ccc2c1oc(=O)c1ccccc12
Activity [1]: 94.27% | Activity [2]: 102.82% | Activity [3]: 107.51% | Activity [4]: 110% | Activity [5]: 114.47% | Activity [6]: 104.87% | Activity [7]: 100.54% | Activity [8]: 102.65% | Activity [9]: 113.56% | Activity [10]: 98.34% | Activity [11]: 122.93% | Activity [12]: 101.61% | Activity [13]: 104.56% | Activity [14]: 99.54% | Activity [15]: 100.17% | Activity [16]: 115.03% | Activity [17]: 99.25% | Activity [18]: 99.55% | Activity [19]: 111.36%

COc1ccc(S(=O)(=O)n2ccc(-c3ccc4c(c3)CCC(C)(C)O4)n2)cc1
Activity [1]: 46.7% | Activity [2]: 73.48% | Activity [3]: 78.12% | Activity [4]: 68.22% | Activity [5]: 104.15% | Activity [6]: 67.61% | Activity [7]: 57.3% | Activity [8]: 81.18% | Activity [9]: 98.27% | Activity [10]: 79.45% | Activity [11]: 83.99% | Activity [12]: 87.12% | Activity [13]: 102.86% | Activity [14]: 47.66% | Activity [15]: 84.48% | Activity [16]: 101% | Activity [17]: 71.38% | Activity [18]: 51.56% | Activity [19]: 60.02%
